In assay [1] the target is nucleotide binding site (NBS). As to conditions: read-out: previously reported Kd for IBA/NBS interactions; cited from earlier work.
Assay [2] relates to CD20 negative myeloma cell lines, U266, H929, and MM.1S. Briefly: CD20 antigen detection flow cytometry assay. Type of assay: cell-based. Conditions: conjugate 200 nM, photocrosslinked at 1 J/cm^2; U266, H929, MM.1S. The method, then:
IM9, U266, H929, and MM.1S cell lines were cultured in RPMI 1640 media containing 10% FBS, 2 mM L-glutamine, 100 U/mL penicillin, and 100 μg/mL streptomycin. […] IBA-FITC was photocrosslinked to Rituximab at the indicated UV energies. All cell lines were used at a density of 0.5×10^6 cells/mL in blocking buffer (1.5% BSA in PBS pH 7.4) and initially incubated for 30 min on ice. […] Samples were washed three times and analyzed on a Guava easyCyte 8HT flow cytometer.
A general note: In flow cytometry, cells or beads pass a laser one at a time.

The values that follow come from patent US11116848B2, “Selective UV crosslinking of peptides and functional moieties to immunoglobulins” (University of Notre Dame du Lac, priority 2013, dated 2021).

For `O=C(O)CCCc1c[nH]c2ccccc12` [IBA, indole-3-butyric acid], the Kd in assay [1] is 1 to 8 µM. As for Rituximab-IBA-FITC conjugate, in assay [2], the “binding to CD20 negative cell lines” value was “negligible binding”.
